Laboratory results from patent publication US11578056B2, “Solid forms comprising (S)-2-(2,6-dioxopiperidin-3-yl)-4-((2-fluoro-4-((3-morpholinoazetidin-1-yl)methyl)benzyl)amino)isoindoline-1,3-dione and salts thereof, and compositions comprising and methods of using the same” (Celgene Corporation, priority 2019, dated 2023).

Tests used:
Experiment in all cases: Hematological cell line viability/apoptosis flow cytometry assay
Format in all cases: cell-based
PGA1 cell line = settings: PGA1 (CLL), 120 h
Description: (§1) Cell Proliferation and Viability Assay Using Hematological Cell Lines: The following exemplary anti-proliferative assay uses exemplary hematological cell lines in the following. The in vitro growth inhibitory activity of Compound 1 described herein was evaluated using a 384-well flow cytometry assay.
(§2) The cell lines were plated in 384-well flat bottom plates and assessed with increasing concentrations of compound ranging from 0.00015 to 10 μM or dimethyl sulfoxide (DMSO) control. The final concentration of DMSO was 0.1% (v/v). Following the addition of Compound 1 or DMSO and incubation for 120 hours, cell number and cell death were analyzed by flow cytometry (Attune®, Thermo Fisher) using Annexin V and the live-cell impermeant DNA dye, DRAQ7. Phosphatidylserine translocates from the inner layer to the outer layer of the cell membrane early in apoptosis and Annexin V binds to the exposed phosphatidylserine found on the surface of an apoptotic cell. The vital dye DRAQ7 is excluded by intact live cells and only stains cells that have died as a result of apoptosis or necrosis.
(§3) Flow cytometry data analysis was then performed using the Flow Jo_v10 software to determine the number of viable cells (Annexin V and DRAQ7 double negative staining cells) and percentage of apoptotic cells (Annexin V positive cells) for each condition. The live cell count for every concentration was normalized to the DMSO control (considered as 100%) to calculate the percentage of viable cells remaining after treatment and graphed using GraphPad Prism 7.03. The IC50 (50% inhibitory concentration) and Emax (maximum efficacy achieved) values were then calculated by performing nonlinear regression curve fitting using log(inhibitor) vs. normalized response—variable slope analysis on GraphPad Prism 7.03. Area under the curve (AUC) was calculated by performing area under curve analysis on GraphPad Prism 7.03. Similarly, for apoptosis analysis, the percentage of apoptosis combining both “early” (Annexin V positive and DRAQ7 negative) and “late” apoptosis (Annexin V and DRAQ7 positive) cell gates relative to DMSO was graphed using GraphPad Prism 7.03. The AUC, EC50 (concentration of compound that produces half-maximal apoptosis response) and Ymax (maximal percentage of apoptosis achieved) values from apoptosis curves were calculated by performing area under curve analysis and nonlinear regression curve fitting using log(agonist) vs. normalized response—Variable slope analysis on GraphPad Prism 7.03.
(§4) Dose-response proliferation curves for the panel of hematological cell lines and non-linear curve-fit regression were used to determine IC50, AUC, and Emax for % viable cells (Emax for viability varies between 100 at low doses and 0 at high doses, which corresponds to inhibition of all viable cells), and dose-response apoptosis curves were used to determine the EC50, AUC, and Ymax for % apoptosis (Ymax for apoptosis varies from 0 at low doses and 100 at higher doses which corresponds to death of all cells). Tumor cells were exposed to serial dilutions (0.00015 to 10 μM) of Compound 1 or dimethyl sulfoxide (DMSO) control for 5 days. Viability and apoptosis for all cell lines was determined by Annexin V/7-aminoactinomycin D (7-AAD) flow cytometry.

SU-DHL-16 cell line = settings: SU-DHL-16 (DLBCL GCB); 120 h
Description: as §1, §2, §3, §4

KOPN-8 cell line = settings: KOPN-8 (ALL), 120 h
Description: as §1, §2, §3, §4

RIVA cell line = settings: RIVA (DLBCL ABC), 120 h
Description: as §1, §2, §3, §4

CARNAVAL cell line = settings: CARNAVAL (DLBCL), 120 h
Description: as §1, §2, §3, §4

HuT-102 cell line = settings: HuT-102 (TCL), 120 h
Description: as §1, §2, §3, §4

KARPAS-422 cell line = settings: KARPAS-422 (DLBCL GCB); 120 h
Description: as §1, §2, §3, §4

Mec1 cell line = settings: Mec1 (CLL), 120 h
Description: as §1, §2, §3, §4

OCI-LY1 cell line = settings: OCI-LY1 (DLBCL GCB); 120 h
Description: as §1, §2, §3, §4

Toledo cell line = settings: Toledo (DLBCL GCB); 120 h
Description: as §1, §2, §3, §4

BL-41 cell line = settings: BL-41 (BL), 120 h
Description: as §1, §2, §3, §4

ROS-50 cell line = settings: ROS-50 (DLBCL), 120 h
Description: as §1, §2, §3, §4

STR428 cell line = settings: STR428 (DLBCL), 120 h
Description: as §1, §2, §3, §4

[1] = Homo sapiens, read-out: % Viable Cells IC50

O=C1CC[C@H](N2C(=O)c3cccc(NCc4ccc(CN5CC(N6CCOCC6)C5)cc4F)c3C2=O)C(=O)N1 [Compound 1, (S)-2-(2,6-dioxopiperidin-3-yl)-4-((2-fluoro-4-((3-morpholinoazetidin-1-yl)methyl)benzyl)amino)isoindoline-1,3-dione]
% Viable Cells AUC (PGA1 cell line): 736.7
% Viable Cells Emax (PGA1 cell line): 69.21%
Apoptosis AUC (PGA1 cell line): 48.94
Apoptosis Ymax (PGA1 cell line): 5.075%
EC50 (PGA1 cell line): 122 nM
IC50 (PGA1 cell line; read-out: % Viable Cells IC50): > 10000 nM
% Viable Cells AUC (SU-DHL-16 cell line): 149.7
% Viable Cells Emax (SU-DHL-16 cell line): 7.137%
Apoptosis AUC (SU-DHL-16 cell line): 492.6
Apoptosis Ymax (SU-DHL-16 cell line): 60.79%
EC50 (KOPN-8 cell line; Homo sapiens): 726000 nM
IC50 (KOPN-8 cell line; [1]): 41.8 nM
% Viable Cells AUC (KOPN-8 cell line): 490.2
% Viable Cells Emax (KOPN-8 cell line): 38.3%
Apoptosis AUC (KOPN-8 cell line): 14.95
Apoptosis Ymax (KOPN-8 cell line): 5.00%
% Viable Cells AUC (RIVA cell line): 452.6
% Viable Cells Emax (RIVA cell line): 36.65%
Apoptosis AUC (RIVA cell line): 242.8
Apoptosis Ymax (RIVA cell line): 27.92%
EC50 (RIVA cell line): 17.7 nM
IC50 (RIVA cell line; read-out: % Viable Cells IC50): 114 nM
% Viable Cells AUC (CARNAVAL cell line): 110.6
% Viable Cells Emax (CARNAVAL cell line): 7.134%
Apoptosis AUC (CARNAVAL cell line): 708.7
Apoptosis Ymax (CARNAVAL cell line): 77.84%
EC50 (CARNAVAL cell line): 152 nM
IC50 (CARNAVAL cell line; read-out: % Viable Cells IC50): 9.12 nM
% Viable Cells AUC (HuT-102 cell line): 395.4
% Viable Cells Emax (HuT-102 cell line): 36.34%
Apoptosis AUC (HuT-102 cell line): 42.75
Apoptosis Ymax (HuT-102 cell line): 18.50%
EC50 (HuT-102 cell line): 23400 nM
IC50 (HuT-102 cell line; read-out: % Viable Cells IC50): 6.5 nM
% Viable Cells AUC (KARPAS-422 cell line): 19.97
% Viable Cells Emax (KARPAS-422 cell line): 0.8721%
Apoptosis AUC (KARPAS-422 cell line): 911.9
Apoptosis Ymax (KARPAS-422 cell line): 93.99%
EC50 (Mec1 cell line; Homo sapiens): 210 nM
IC50 (Mec1 cell line; [1]): > 10000 nM
% Viable Cells AUC (Mec1 cell line): 866.5
% Viable Cells Emax (Mec1 cell line): 83.45%
Apoptosis AUC (Mec1 cell line): 302.4
Apoptosis Ymax (Mec1 cell line): 36.61%
% Viable Cells AUC (OCI-LY1 cell line): 22.77
% Viable Cells Emax (OCI-LY1 cell line): 1.037%
Apoptosis AUC (OCI-LY1 cell line): 852.3
Apoptosis Ymax (OCI-LY1 cell line): 90.09%
% Viable Cells AUC (Toledo cell line): 112.3
% Viable Cells Emax (Toledo cell line): 8.56%
Apoptosis AUC (Toledo cell line): 231.4
Apoptosis Ymax (Toledo cell line): 27.5%
% Viable Cells AUC (BL-41 cell line): 270.2
% Viable Cells Emax (BL-41 cell line): 96.65%
Apoptosis AUC (BL-41 cell line): 288.2
Apoptosis Ymax (BL-41 cell line): 79.5%
EC50 (BL-41 cell line; Homo sapiens): 6920 nM
IC50 (BL-41 cell line; [1]): 6060 nM
% Viable Cells AUC (ROS-50 cell line): 762.1
% Viable Cells Emax (ROS-50 cell line): 65.57%
Apoptosis AUC (ROS-50 cell line): 87.92
Apoptosis Ymax (ROS-50 cell line): 10.9%
EC50 (ROS-50 cell line): 335 nM
IC50 (ROS-50 cell line; read-out: % Viable Cells IC50): > 10000 nM
% Viable Cells AUC (STR428 cell line): 43.48
% Viable Cells Emax (STR428 cell line): 1.227%
Apoptosis AUC (STR428 cell line): 905.9
Apoptosis Ymax (STR428 cell line): 95.17%
EC50 (STR428 cell line): 102 nM
IC50 (STR428 cell line; read-out: % Viable Cells IC50): 94.7 nM
